The record followed here is patent US10206893B2, “Immunoregulatory agents” (Flexus Biosciences, Inc., priority 2014, dated 2019).

For assay [1], the target named is T1, indoleamine 2,3-dioxygenase (IDO) (Homo sapiens, UniProt P14902).
T1 construct: host or cells: HeLa cells, IDO induced with IFNγ (25 ng/mL)
In words: HeLa cell-based indoleamine 2,3-dioxygenase (IDO) assay (IFNγ-induced kynurenine production). The following applies: Tables 3-7; compounds shown only as drawings; read-out: Potency (IDO IC50). Here is the method:
Assessment of inhibitor activity in HeLa cell-based indoleamine 2,3-dioxygenase (IDO) assay.
HeLa (ATCC® CCL-2) cells were obtained from the ATCC® and cultured in Dulbecco's Modified Eagle Medium supplemented with 4.5 g/L glucose, […] (#10-013-CV, Corning), 2 mM L-alanyl-L-glutamine dipeptide (#35050-061, Gibco), 100 U/mL penicillin, 100 μg/mL streptomycin (#SV30010, HyClone) and 10% fetal bovine serum (#SH30071.03 HyClone). Cells were maintained in a humidified incubator at 37° C. in 5% CO2.
IDO activity was assessed as a function of kynurenine production as follows: HeLa cells were seeded in a 96-well culture plate at a density of 5,000 cells/well and allowed to equilibrate overnight. After 24 hours, the media was aspirated and replaced with media containing IFNγ (#285-IF/CF, R&D Systems) at a final concentration of 25 ng/mL. A serial dilution of each test compound was added to the cells in a total volume of 200 μL of culture medium. After a further 48 hour incubation, 170 μL of supernatant was transferred from each well to a fresh 96-well plate. 12.1 μL of 6.1N trichloroacetic acid (#T0699, Sigma-Aldrich) was added to each well and mixed, followed by incubation at 65° C. for 20 minutes to hydrolyze N-formylkynurenine, the product of indoleamine 2,3-dioxygenase, to kynurenine. The reaction mixture was then centrifuged for 10 mins at 500×g to sediment the precipitate. 100 μL of the supernatant was transferred from each well to a fresh 96-well plate. 100 μl of 2% (w/v) p-dimethylaminobenzaldehyde (#15647-7, Sigma-Aldrich) in acetic acid (#A6283, Sigma-Aldrich) was added to each well mixed and incubated at room temperature for 20 mins. Kynurenine concentrations were determined by measuring absorbance at 480 nm and calibrating against an L-kynurenine (#K8625, Sigma-Aldrich) standard curve using a SPECTRAMAX® M2e microplate reader (Molecular Devices). The percentage activity at each inhibitor concentration was determined and IC50 values assessed using nonlinear regression.
Activity for compounds described herein is provided in Tables 3-7, wherein potency levels are provided as follows: (Potency: IDO IC50: A<0.1 μM; B<1 μM; C<10 μM)

Assay [2] concerns the target T2, human IDO1 (Homo sapiens, UniProt P14902).
T2 construct: expressed in transfected cells
The assay is described as follows: IDO inhibition assay in HEK293 cells stably expressing human IDO1 (kynurenine, Ehrlich reagent). Format: cell-based. The following applies: 20 hours incubation, read-out: HEK Human IDO-1 Bio Activity. The protocol: They were cultured in medium (DMEM with 10% FBS) containing 1 mg/ml G418 for two weeks.
The human IDO1/HEK293 cells were seeded at 10,000 cells per 50 μL per well with RPMI/phenol red free media contains 10% FBS in a 384-well black wall clear bottom tissue culture plate (Matrix Technologies LLC) 100 nL of certain concentration of compound was then added to each well using ECHO liquid handling systems. The cells were incubated for 20 hours in 37° C. incubator with 5% CO2.
The compound treatments were stopped by adding trichloroacetic acid (Sigma-Aldrich) to a final concentration at 0.2%. The cell plate was further incubated at 50° C. for 30 minute. The equal volume supernatant (20 μL) and 0.2% (w/v) Ehrlich reagent (4-dimethylaminobenzaldehyde, Sigma-Aldrich) in glacial acetic acid were mixed in a new clear bottom 384-well plate. This plate was then incubated at room temperature for 30 minute. The absorbance at 490 nm was measured on Envision plate reader.

T1 sequence (P14902 whole entry): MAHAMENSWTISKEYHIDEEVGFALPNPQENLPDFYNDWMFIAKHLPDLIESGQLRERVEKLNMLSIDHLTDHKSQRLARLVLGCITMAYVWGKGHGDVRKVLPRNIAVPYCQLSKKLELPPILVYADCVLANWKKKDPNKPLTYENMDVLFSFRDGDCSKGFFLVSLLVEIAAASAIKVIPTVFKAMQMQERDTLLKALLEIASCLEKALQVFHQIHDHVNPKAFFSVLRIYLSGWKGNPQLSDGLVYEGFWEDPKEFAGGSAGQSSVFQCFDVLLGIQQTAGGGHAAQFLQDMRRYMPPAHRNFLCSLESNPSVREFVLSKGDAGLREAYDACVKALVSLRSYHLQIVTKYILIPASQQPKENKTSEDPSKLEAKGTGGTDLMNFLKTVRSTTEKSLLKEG
T2 sequence (P14902 whole entry): as above

As to `O=C(Nc1ccc(Cl)cc1)[C@H]1CC[C@@H](Cc2ccccc2)CC1`, the IC50 in assay [1] is less than 2000 nM.

For the compound `O=C(Nc1ccc(Cl)cc1)[C@H]1CC[C@H](Cc2ccccc2)CC1`, the IC50 in assay [1] is less than 2000 nM.

For `N#Cc1ccc(NC(=O)[C@H]2CC[C@@H](Cc3ccccc3)CC2)cc1`, the IC50 in assay [1] is less than 2000 nM.

Regarding `N#Cc1ccc(NC(=O)[C@H]2CC[C@H](Cc3ccccc3)CC2)cc1`, in assay [1], the IC50 was less than 2000 nM.

For the compound `O=C(Nc1ccc(F)cc1)[C@H]1CC[C@@H](Cc2ccccc2)CC1`, the IC50 in assay [1] was less than 2000 nM.

Take `O=C(Nc1ccc(F)cc1)[C@H]1CC[C@H](Cc2ccccc2)CC1`: the IC50 in assay [1] was less than 2000 nM.

Take `COc1ccc(NC(=O)[C@H]2CC[C@@H](Cc3ccccc3)CC2)cc1`: the IC50 in assay [1] was less than 2000 nM.

As for `COc1ccc(NC(=O)[C@H]2CC[C@H](Cc3ccccc3)CC2)cc1`, the IC50 in assay [1] was less than 2000 nM.

Consider `COc1ccc(C2CCC(CC(=O)NCc3ccccc3)CC2)cc1` (stereo not drawn), for which the IC50 in assay [1] was less than 2000 nM.

For `COc1ccc([C@H]2CC[C@@H](CC(=O)NCc3ccccc3)CC2)cc1`, the IC50 in assay [1] was less than 250 nM.

For `N#Cc1ccc(C(=O)NC[C@H]2CC[C@@H](c3ccccc3)CC2)cc1`, in assay [1], the IC50 was less than 250 nM.

Turning to `O=S(=O)(NC[C@H]1CC[C@@H](c2ccccc2)CC1)c1ccc(Cl)cc1`, in assay [1], the IC50 was less than 250 nM.

With `N#Cc1cccc(C(=O)NC[C@H]2CC[C@@H](c3ccccc3)CC2)c1`, in assay [1], the IC50 was less than 50 nM.

As for `O=C(c1ccc(Cl)cc1)N1CCC(Cc2ccccc2)CC1`, the IC50 in assay [1] was less than 2000 nM.

Take `O=C(NC[C@H]1CC[C@@H](c2ccccc2)CC1)c1ccc(Cl)cc1`: the IC50 in assay [1] was less than 250 nM.

As to `O=C(c1cccc(Cl)c1)N1CCC(Cc2ccccc2)CC1`, the IC50 in assay [1] was less than 2000 nM.

With `O=C(NC[C@H]1CC[C@@H](c2ccccc2)CC1)c1cccc(Cl)c1`, in assay [1], the IC50 is less than 50 nM.

In the case of `O=C(NC[C@H]1CC[C@@H](c2ccccc2)CC1)c1ccc(F)cc1`, the IC50 in assay [1] is less than 50 nM.

With `COc1ccc([C@H]2CC[C@@H](CCNc3ccc(Cl)cc3)CC2)cc1`, in assay [1], the IC50 is less than 250 nM.

Regarding `COc1ccc([C@H]2CC[C@H](CCNc3ccc(Cl)cc3)CC2)cc1`, the IC50 in assay [1] is less than 2000 nM.

Take `O=C(Nc1ccc(Cl)cc1)O[C@H]1CC[C@@H](c2ccccc2)C1`: the IC50 in assay [1] is less than 2000 nM.

For the compound `O=C(Nc1ccc(F)cc1)OC[C@H]1CC[C@@H](c2ccccc2)CC1`, the IC50 in assay [1] is less than 2000 nM.

As for `O=C(Nc1ccc(F)cc1)N[C@H]1CC[C@H](c2ccccc2)CC1`, in assay [1], the IC50 was less than 50 nM.

As for `O=C(Nc1cccc(Cl)c1)N[C@H]1CC[C@@H](c2ccccc2)CC1`, the IC50 in assay [1] is less than 250 nM.

Turning to `O=C(Nc1ccc(Cl)cc1)N[C@H]1CC[C@H](c2ccccc2)CC1`, the IC50 in assay [1] is less than 50 nM.

Regarding `O=C(Cc1ccc(Cl)cc1)N[C@H]1CC[C@@H](c2ccccc2)CC1`, the IC50 in assay [1] was less than 2000 nM.

As for `O=C(Nc1cccc(Cl)c1)N[C@H]1CC[C@H](c2ccccc2)CC1`, the IC50 in assay [1] is less than 50 nM.

`O=C(Nc1ccc(Cl)cc1)N[C@H]1CC[C@@H](c2ccccc2)CC1`: the IC50 in assay [1] is less than 250 nM.

Regarding `O=C(Cc1cccc(Cl)c1)N[C@H]1CC[C@H](c2ccccc2)CC1`, the IC50 in assay [1] is less than 50 nM.

Regarding `O=C(Nc1ccc(Cl)cc1)N1CCC(Oc2ccccc2)CC1`, the IC50 in assay [1] was less than 2000 nM.

For the compound `O=C(Nc1ccc(Cl)cc1)C1CCC(Oc2ccccc2)CC1` (stereo not drawn), the IC50 in assay [1] is less than 250 nM.

As for `COc1ccc([C@H]2CC[C@H](NC(=O)Cc3ccc(Cl)cc3)CC2)cc1`, the IC50 in assay [1] was less than 250 nM.

For the compound `O=S(=O)(CC1CCC(c2ccnc3ccccc23)CC1)Nc1ccc(Cl)cc1` (stereo not drawn), the IC50 in assay [1] was less than 50 nM.

On to `COc1ccc(C2CCC(CC(Nc3ccc(F)cc3)C(F)(F)F)CC2)cc1` (stereo not drawn), for which the IC50 in assay [1] is less than 50 nM.

For the compound `COc1ccc(C2CCC(CC(Nc3ccc(Cl)cc3)C(F)(F)F)CC2)cc1` (stereo not drawn), the IC50 in assay [1] is less than 50 nM.

For the compound `N#Cc1ccc(CC(=O)N[C@H]2CC[C@H](c3ccccc3)CC2)cc1`, in assay [1], the IC50 was less than 250 nM.

In the case of `CC(C(=O)N[C@H]1CC[C@H](c2ccccc2)CC1)c1ccc(C#N)cc1` (stereo partly drawn), the IC50 in assay [1] was less than 50 nM.

As for `O=C(Cc1ccc(Cl)cc1)N[C@H]1CC[C@H](c2ccnc3ccccc32)CC1`, the IC50 in assay [1] was less than 250 nM.

`Cc1c(C2CCC(C(C)NC(=O)c3ccc(Cl)cc3)CC2)ccnc1F` (single isomer, unassigned) [Example 158b, 4-chloro-N-(1-(4-(2-fluoro-3-methylpyridin-4-yl)cyclohexyl)ethyl)benzamide]: the IC50 in assay [2] was less than 50 nM.

Regarding `Cc1c(C2CCC(C(C)NC(=O)c3ccc(Cl)cc3)CC2)ccnc1F` (single isomer, unassigned) [Example 158c, 4-chloro-N-(1-(4-(2-fluoro-3-methylpyridin-4-yl)cyclohexyl)ethyl)benzamide], the IC50 in assay [2] was less than 50 nM.

For `Cc1c(C2CCC(C(C)NC(=O)c3ccc(Cl)cc3)CC2)ccnc1F` (single isomer, unassigned) [Example 158d, 4-chloro-N-(1-(4-(2-fluoro-3-methylpyridin-4-yl)cyclohexyl)ethyl)benzamide], in assay [2], the IC50 was less than 50 nM.

Take `Cc1c(C2CCC(C(C)NC(=O)c3ccc(Cl)cc3)CC2)ccnc1F` (single isomer, unassigned) [Example 158e, 4-chloro-N-(1-(4-(2-fluoro-3-methylpyridin-4-yl)cyclohexyl)ethyl)benzamide]: in assay [2], the IC50 was less than 2000 nM.

As to `Cc1nccc(C2CCC(C(C)NC(=O)c3ccc(Cl)cc3)CC2)c1C` (single isomer, unassigned) [Example 159b, 4-chloro-N-(1-(4-(2,3-dimethylpyridin-4-yl)cyclohexyl)ethyl)benzamide], the IC50 in assay [2] was less than 250 nM.

As to `Cc1nccc(C2CCC(C(C)NC(=O)c3ccc(Cl)cc3)CC2)c1C` (single isomer, unassigned) [Example 159c, 4-chloro-N-(1-(4-(2,3-dimethylpyridin-4-yl)cyclohexyl)ethyl)benzamide], the IC50 in assay [2] is less than 50 nM.

Consider `Cc1nccc(C2CCC(C(C)NC(=O)c3ccc(Cl)cc3)CC2)c1C` (single isomer, unassigned) [Example 159d, 4-chloro-N-(1-(4-(2,3-dimethylpyridin-4-yl)cyclohexyl)ethyl)benzamide], for which the IC50 in assay [2] was less than 50 nM.

Turning to `Cc1nccc(C2CCC(C(C)NC(=O)c3ccc(Cl)cc3)CC2)c1C` (single isomer, unassigned) [Example 159e, 4-chloro-N-(1-(4-(2,3-dimethylpyridin-4-yl)cyclohexyl)ethyl)benzamide], the IC50 in assay [2] was less than 2000 nM.

With `Cc1cnccc1C1CCC(C(C)NC(=O)c2ccc(Cl)cc2)CC1` (single isomer, unassigned) [Example 160b, 4-chloro-N-(1-(4-(3-methylpyridin-4-yl)cyclohexyl)ethyl)benzamide], the IC50 in assay [2] was less than 2000 nM.

`Cc1cnccc1C1CCC(C(C)NC(=O)c2ccc(Cl)cc2)CC1` (single isomer, unassigned) [Example 160c, 4-chloro-N-(1-(4-(3-methylpyridin-4-yl)cyclohexyl)ethyl)benzamide]: in assay [2], the IC50 was less than 2000 nM.

As to `Cc1cnccc1C1CCC(C(C)NC(=O)c2ccc(Cl)cc2)CC1` (single isomer, unassigned) [Example 160d, 4-chloro-N-(1-(4-(3-methylpyridin-4-yl)cyclohexyl)ethyl)benzamide], in assay [2], the IC50 was less than 250 nM.

With `Cc1cnccc1C1CCC(C(C)NC(=O)c2ccc(Cl)cc2)CC1` (single isomer, unassigned) [Example 160e, 4-chloro-N-(1-(4-(3-methylpyridin-4-yl)cyclohexyl)ethyl)benzamide], the IC50 in assay [2] was less than 50 nM.

For the compound `CC(NC(=O)c1ccc(Cl)cc1)C1CCC(c2ccncc2F)CC1` (single isomer, unassigned) [Example 161a, 4-chloro-N-(1-(4-(3-fluoropyridin-4-yl)cyclohexyl)ethyl)benzamide], in assay [2], the IC50 was less than 2000 nM.
